Article doi:10.1101/2020.06.20.162875v1 (biorxiv, 2020)
Read-outs that look alike come from different tables or passages of the source.

What was measured:
[1] = target: T1, PNA (peanut lectin, peanut agglutinin) (Arachis hypogaea, UniProt P02872); assay: isothermal titration calorimetry; type: binding
T1 sequence (P02872 24-259): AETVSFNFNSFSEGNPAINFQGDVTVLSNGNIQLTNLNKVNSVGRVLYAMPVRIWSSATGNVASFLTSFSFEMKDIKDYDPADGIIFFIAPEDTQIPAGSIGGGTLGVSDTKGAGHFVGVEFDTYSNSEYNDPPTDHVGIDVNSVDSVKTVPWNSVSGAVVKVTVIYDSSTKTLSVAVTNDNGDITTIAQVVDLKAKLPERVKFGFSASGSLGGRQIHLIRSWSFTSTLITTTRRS

[2] = target: T1, PNA (peanut lectin, peanut agglutinin); assay: isothermal titration calorimetry; type: binding; remark: listed apart in the source

Row | Structure (SMILES) | Kd [2] [µM] | also measured
1 | OC[C@H]1O[C@@H](O[C@H]2[C@H](O)[C@@H](O)C(O)O[C@@H]2CO)[C@H](O)[C@@H](O)[C@H]1O (some centres unmarked) [Lactose] | – | Kd ([1]; 298 K, independent single-site model, reference compound): 644 µM
2 | CO[C@H]1O[C@H](Cn2cc(CNC(=O)CCC(=O)N[C@@H]3O[C@H](CO)[C@H](O)[C@H](O)[C@H]3O)nn2)[C@@H](O)[C@H](O)[C@H]1O [NGS] | 1620 | –
3 | CO[C@H]1O[C@H](Cn2cc(CSC[C@H]3O[C@@H](S[C@@H]4O[C@H](CO)[C@H](O)[C@H](O)[C@H]4O)[C@H](O)[C@@H](O)[C@@H]3O)nn2)[C@@H](O)[C@H](O)[C@H]1O [STGD] | 420 | –
4 | OC[C@H]1O[C@@H](S[C@@H]2O[C@H](CO)[C@H](O)[C@H](O)[C@H]2O)[C@H](O)[C@@H](O)[C@H]1O [TDG] | – | Kd [1]: 524 µM
5 | OC[C@H]1O[C@@H](S[C@@H]2O[C@H](CSCc3cn(C[C@H]4O[C@H](O[C@H]5O[C@H](Cn6cc(CSC[C@H]7O[C@@H](S[C@@H]8O[C@H](CO)[C@H](O)[C@H](O)[C@H]8O)[C@H](O)[C@@H](O)[C@@H]7O)nn6)[C@@H](O)[C@H](O)[C@H]5O)[C@H](O)[C@@H](O)[C@@H]4O)nn3)[C@@H](O)[C@H](O)[C@H]2O)[C@H](O)[C@@H](O)[C@H]1O [diSTGD] | 161 | –

More lines, main results first:

Row | Kd [2] [µM] | Structure (SMILES) | also measured
6 | 552 | C#CCSC[C@H]1O[C@@H](S[C@@H]2O[C@H](CO)[C@H](O)[C@H](O)[C@H]2O)[C@H](O)[C@@H](O)[C@@H]1O [STG] | –
7 | 698 | O=C(CCC(=O)N[C@@H]1O[C@H](CO)[C@H](O)[C@H](O)[C@H]1O)NCc1cn([C@H]2CO[C@H]3[C@@H]2OC[C@@H]3n2cc(CNC(=O)CCC(=O)N[C@@H]3O[C@H](CO)[C@H](O)[C@H](O)[C@H]3O)nn2)nn1 [diNGS] | –
8 | 544 | O=C(NCc1cn(C2COC3C2OCC3n2cc(CNC(=O)[C@H](O)[C@@H](O)C(=O)N[C@@H]3O[C@H](CO)[C@H](O)[C@H](O)[C@H]3O)nn2)nn1)[C@H](O)[C@@H](O)C(=O)N[C@@H]1O[C@H](CO)[C@H](O)[C@H](O)[C@H]1O (some centres unmarked) [diNGT] | –
